In patent US20170246236A1, “METHODS AND COMPOSITIONS FOR ENHANCED DELIVERY OF COMPOUNDS” (Sanford Burnham Prebys Medical Discovery Institute, priority 2010, published 2017):
Residues, ends and D or L forms follow the SMILES beside them.

How the values were obtained:
GBM tumors = assay: In vivo peptide homing; design: species or system mouse; conditions: 200 μg Rd-labeled peptide i.v., 3 hours, 005 tumor mice
Method: In vivo peptide homing. […] Rhodamine-labeled CGKRK (200 μg) was intravenously injected into the mice and allowed to circulate for 3 hours. The mice were perfused with PBS through the heart under anesthesia, and tissues were collected and processed for fluorescence analysis.

mitochondria in HUVEC = assay: Live cell imaging, co-localization with mitochondrial marker; assay type: cell-based, human
Method: (§1) Cell proliferation assay and imaging. The MTT [3-[4,5-dimethylthazol-2-yl]-2,5-diphenyl tetrazolium-bromide] assay (Molecular Probes, Eugene, Oreg.) was used to quantify cell proliferation. Cells were seeded in complete medium into 96-well plates (5×10^3 cells/well), and allowed to attach overnight at 37° C. in a humidified 5% CO2 atmosphere. The culture media was then removed and various concentrations of peptides or NWs were added. After 48, and 72 hours, 10 μL of the MTT reagent (5 mg/mL in PBS) was added to each well. The medium was removed from cells after 3 hours, and […] of DMSO:MEOH (1:1 v/v) were added to each well. The plates were read at a wavelength of 595 nm. For live cell imaging, cells seeded on glass-bottom plates (Willco, Amsterdam, Netherlands), and 24 hours later, the cells were washed and incubated with FAM-labeled peptides or NWs for 45 min at 37° C. The cells were then rinsed three times with PBS and incubated for an additional 15 min at 37° C. with […] MitoTracker Red (Molecular Probes, Eugene, Oreg.) followed by nuclear staining with Hoechst 33342 DNA dyes (Molecular Probe, Eugene, Oreg.) for 12 min. The cells were analyzed with Fluoview FV 500 confocal microscopy (Olympus America, Center Valley, Pa.).

[1] = tested on: mitochondria in U87 cells; assay: as above; assay type: cell-based, human
Method: as §1

purified mitochondria = assay: Peptide/phage binding to purified mitochondria; design: species or system mouse; conditions: increasing concentrations of unlabeled peptide
Method: Isolation of mitochondria and peptide/phage binding. Mitochondria were isolated from livers of Balb/c mice using differential centrifugation with buffers from a Pierce mitochondrial isolation kit for tissue according to the manufacture's instruction (Pierce Biotechnology, Rockford, Ill.). To test the binding of the CGKRK peptide to mitochondria, purified mitochondria were pre-incubated with various concentrations of non-labeled CGKRK or control peptide (CREKA; SEQ ID NO:92) for 30 min 4° C. FAM-CGKRK was then added and incubated for an additional 1 hour. The binding of the FAM peptide was quantified by fluorescence. In phage binding assays, purified mitochondria were suspended in 10 ml DMEM supplemented with 1% BSA, and incubated with 5×10^8 plaque-forming units (pfu) of peptide-displaying phage, overnight at 4° C. The mitochondria were washed 3 times with DMEM/BSA, the phage were collected with lysogeny broth containing 1% NP-40, and quantified by plaque assay.

[2] = tested on: proteins from brain tumor extracts; assay: CGKRK-binding proteins in glioblastoma tumor extracts (affinity matrix); conditions: mass spectrometry
Description: Proteins from brain tumor extracts were bound to insolubilized (SulfoLink Resin; Pierce Biotechnology) CGKRK peptide. Proteins were eluted from the affinity matrix with either CGKRK peptide or with CREKA (SEQ ID NO:92) peptide (negative control). Silver-stained gels were used to show the proteins eluted with CGKRK and CREKA (SEQ ID NO:92). […] The bands in the CGKRK eluate were identified by mass spectrometry as the proteins listed.

Molecule	co-localization with mitochondria (mitochondria in HUVEC)	co-localization with mitochondria [1]	also measured
N=C(N)NCCC[C@H](NC(=O)[C@H](CCCCN)NC(=O)CNC(=O)[C@@H](N)CS)C(=O)N[C@@H](CCCCN)C(=O)O [CGKRK, Cys-Gly-Lys-Arg-Lys] (H-CGKRK-OH)			peptide in normal tissues (GBM tumors): not in normal tissues; peptide in normal tissues (GBM tumors; listed as CGKRK peptide): appeared in kidney but not in heart, pancreas, liver, lung, or spleen
CC(C)C[C@@H](NC(=O)[C@H](N)CCCCN)C(=O)N[C@H](C)C(=O)N[C@H](CCCCN)C(=O)N[C@H](CC(C)C)C(=O)N[C@H](C)C(=O)N[C@H](CCCCN)C(=O)N[C@H](CCCCN)C(=O)N[C@H](CC(C)C)C(=O)N[C@H](C)C(=O)N[C@H](CCCCN)C(=O)N[C@H](CC(C)C)C(=O)N[C@H](C)C(=O)N[C@H](CCCCN)C(=O)N[C@@H](CS)C(=O)NCC(=O)N[C@@H](CCCCN)C(=O)N[C@@H](CCCNC(=N)N)C(=O)N[C@@H](CCCCN)C(=O)O [CGKRK-D[KLAKLAK]2 peptide]	colocalized with mitochondria	colocalized with mitochondria	
CREKA: Unrelated control peptide, SEQ ID NO:92 (clot binding/homing peptide)			inhibition of FAM-CGKRK binding to mitochondria by unlabeled peptide (purified mitochondria): not; proteins eluted from CGKRK affinity matrix [2]: failed to elute any visible protein bands
D[KLAKLAK]2: α-helical amphipathic pro-apoptotic peptide, SEQ ID NO:3 (KLAKLAKKLAKLAK; D-amino acids; membrane perturbing molecule) [reference compound]	did not	did not	
